Laboratory results as given in PubChem BioAssay (NCI).
“And” between values parts separate entries of the source, which are not always exact repeats. Equal entries are not always repeated.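 Growth conditions: 96-well plates. Treatment: test compound, 48 hours, 5 concentrations. Analysis: linear interpolation between bracketing concentrations; unreached endpoints set to highest concentration. The concentration for 50% growth inhibition is given as GI50. TGI: concentration producing complete growth inhibition.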

Key:
Assay in all cases: NCI-60 cell line screen, 48 h
[1] = tested on: SF-539 CNS
[2] = tested on: MALME-3M melanoma
[3] = tested on: HCT-116 colon
[4] = tested on: SF-268 CNS
[5] = tested on: NCI-H226 lung
[6] = tested on: M14 melanoma
[7] = tested on: SK-MEL-5 melanoma
[8] = tested on: K-562 leukemia
[9] = tested on: KM12 colon
[10] = tested on: SF-295 CNS

Q: For `O=C(/C=C/c1ccco1)c1ccc(Nc2nc(Nc3ccc(F)cc3)nc(Nc3ccc(Cl)cc3)n2)cc1`, which GI50 [1] is on record?
A: The GI50 was 14.2 µM.

Q: What about the TGI [1] of the same compound?
A: The TGI was 28.3 µM.

Q: And the GI50 [2]?
A: The GI50 was 31.9 µM.

Q: And the TGI [2]?
A: Its TGI is greater than 66.2 µM.

Q: And the GI50 [3]?
A: Its GI50 is 16.5 µM.

Q: What about the TGI [3] of the same compound?
A: The TGI was greater than 54.4 µM.

Q: And the GI50 [4]?
A: Its GI50 is 34.8 µM.

Q: And the TGI [4]?
A: Its TGI is greater than 86.4 µM.

Q: What about the GI50 [5] of the same compound?
A: Its GI50 is greater than 35.4 µM.

Q: And the TGI [5]?
A: Its TGI is greater than 82.2 µM.

Q: And the GI50 [6]?
A: Its GI50 is 13.5 µM.

Q: What about the TGI [6] of the same compound?
A: Its TGI is 56.9 µM.

Q: And the GI50 [7]?
A: The GI50 was 23.7 µM.

Q: What about the TGI [7] of the same compound?
A: Its TGI is greater than 100 µM.

Q: And the GI50 [8]?
A: Its GI50 is 24.3 µM.

Q: What about the TGI [8] of the same compound?
A: Its TGI is greater than 64.8 µM.

Q: What about the GI50 [9] of the same compound?
A: Its GI50 is 16.7 µM.

Q: What about the TGI [9] of the same compound?
A: The TGI was 43.4 µM.

Q: What does the source list for `CCC/C(=N\NC(=S)N1CCN(c2ccccn2)CC1)c1ccccn1`?
A: GI50 [1]: 0.15 µM and 0.145 µM; TGI [1]: 1.82 µM and 1.11 µM; TGI [2]: 0.565 µM and 2.07 µM; TGI [3]: > 3.55 µM; TGI [4]: > 10 µM and 1.85 µM; GI50 [5]: 0.136 µM; TGI [5]: 3.67 µM and 1.75 µM; GI50 [6]: 0.122 µM; TGI [6]: 0.318 µM; TGI [7]: 2.41 µM and 1.57 µM; TGI [10]: 6.14 µM and 1.26 µM; TGI [8]: 0.11 µM; TGI [9]: 0.64 µM and 1.52 µM

Q: How did the GI50 [1] turn out when `COc1ccc(C(=O)Cn2c(C(=O)c3ccc(Cl)cc3)nc3ccccc32)cc1` was run?
A: The GI50 was 99.3 µM.

Q: And the TGI [1]?
A: The TGI was greater than 100 µM.

Q: And the GI50 [2]?
A: The GI50 was greater than 56.3 µM.

Q: And the TGI [2]?
A: Its TGI is greater than 100 µM.

Q: And the GI50 [3]?
A: The GI50 was 2.56 µM.

Q: What about the TGI [3] of the same compound?
A: The TGI was greater than 25 µM.

Q: And the GI50 [4]?
A: The GI50 was greater than 24.4 µM.

Q: What about the TGI [4] of the same compound?
A: Its TGI is greater than 100 µM.

Q: What about the GI50 [5] of the same compound?
A: The GI50 was greater than 100 µM.

Q: And the TGI [5]?
A: Its TGI is greater than 100 µM.

Q: What about the GI50 [6] of the same compound?
A: The GI50 was 3.69 µM.

Q: And the TGI [6]?
A: The TGI was greater than 39.3 µM.

Q: What about the GI50 [7] of the same compound?
A: The GI50 was 5.95 µM.

Q: What about the TGI [7] of the same compound?
A: The TGI was greater than 100 µM.

Q: And the GI50 [10]?
A: The GI50 was 22.8 µM.

Q: And the TGI [10]?
A: The TGI was greater than 100 µM.

Q: And the GI50 [8]?
A: The GI50 was 3.33 µM.

Q: What about the TGI [8] of the same compound?
A: Its TGI is greater than 100 µM.

Q: And the GI50 [9]?
A: The GI50 was 4.18 µM.

Q: And the TGI [9]?
A: Its TGI is greater than 100 µM.

Q: How did the GI50 [1] turn out when `COc1ccc(-c2ccc(C3CC(c4ccc(O)cc4)=NN3)o2)c([N+](=O)[O-])c1` (stereo not given) was run?
A: Its GI50 is 27.4 µM.

Q: And the TGI [1]?
A: Its TGI is 97.5 µM.

Q: And the GI50 [2]?
A: Its GI50 is 19.1 µM.

Q: And the TGI [2]?
A: Its TGI is 51.3 µM.

Q: What about the GI50 [3] of the same compound?
A: Its GI50 is 20.1 µM.

Q: What about the TGI [3] of the same compound?
A: The TGI was greater than 100 µM.

Q: What about the GI50 [4] of the same compound?
A: Its GI50 is 22.3 µM.

Q: And the TGI [4]?
A: The TGI was greater than 100 µM.

Q: And the GI50 [5]?
A: Its GI50 is 36.4 µM.

Q: And the TGI [5]?
A: The TGI was greater than 100 µM.

Q: What about the GI50 [6] of the same compound?
A: Its GI50 is 36.1 µM.

Q: And the TGI [6]?
A: Its TGI is greater than 100 µM.

Q: What about the GI50 [10] of the same compound?
A: The GI50 was 29.9 µM.

Q: What about the TGI [10] of the same compound?
A: Its TGI is greater than 100 µM.

Q: What about the GI50 [8] of the same compound?
A: Its GI50 is 13.9 µM.

Q: What about the TGI [8] of the same compound?
A: The TGI was 36.3 µM.

Q: What about the GI50 [9] of the same compound?
A: The GI50 was 24.5 µM.

Q: And the TGI [9]?
A: Its TGI is 95.9 µM.

Q: With `Cn1ncc(=S)[nH]c1=S` as the compound, how does the TGI [1] read?
A: The TGI was greater than 100 µM.

Q: And the TGI [2]?
A: Its TGI is greater than 100 µM.

Q: And the TGI [3]?
A: Its TGI is greater than 100 µM.

Q: And the TGI [4]?
A: Its TGI is greater than 100 µM.

Q: What about the TGI [5] of the same compound?
A: The TGI was greater than 100 µM.

Q: What about the TGI [6] of the same compound?
A: Its TGI is greater than 100 µM.

Q: What about the TGI [10] of the same compound?
A: Its TGI is greater than 100 µM.

Q: What about the TGI [8] of the same compound?
A: Its TGI is greater than 100 µM.

Q: How did the GI50 [1] turn out when `Oc1ccc(C(c2ccccc2)(c2ccccc2)c2ccccc2)cc1` was run?
A: The GI50 was 17.6 µM.

Q: And the TGI [1]?
A: Its TGI is 31.9 µM.

Q: What about the GI50 [2] of the same compound?
A: The GI50 was 27.2 µM.

Q: What about the TGI [2] of the same compound?
A: The TGI was 68.9 µM.

Q: And the GI50 [3]?
A: The GI50 was 12.9 µM.

Q: And the TGI [3]?
A: Its TGI is 26.1 µM.

Q: And the GI50 [4]?
A: Its GI50 is 21.5 µM.

Q: What about the TGI [4] of the same compound?
A: Its TGI is 69.4 µM.

Q: What about the GI50 [5] of the same compound?
A: The GI50 was 19.4 µM.

Q: And the TGI [5]?
A: Its TGI is 37.6 µM.

Q: And the GI50 [6]?
A: Its GI50 is 15.6 µM.

Q: What about the TGI [6] of the same compound?
A: The TGI was 30.3 µM.

Q: And the GI50 [7]?
A: Its GI50 is 15.7 µM.

Q: And the TGI [7]?
A: Its TGI is 32.5 µM.

Q: What about the GI50 [10] of the same compound?
A: The GI50 was 27.2 µM.

Q: What about the TGI [10] of the same compound?
A: The TGI was greater than 100 µM.

Q: And the GI50 [8]?
A: The GI50 was 24.9 µM.

Q: And the TGI [8]?
A: Its TGI is 61.2 µM.

Q: What about the GI50 [9] of the same compound?
A: The GI50 was 19.3 µM.

Q: And the TGI [9]?
A: Its TGI is 48.7 µM.

Q: Which results are given for `CCNC(=O)C[C@@H]1N=C(c2ccc(Cl)cc2)c2cc(OC)ccc2-n2c(C)nnc21`?
A: GI50 [1]: 2.33 µM; TGI [1]: > 100 µM; GI50 [2]: 3.49 µM; TGI [2]: > 100 µM; GI50 [3]: 5.73 µM; TGI [3]: > 100 µM; GI50 [4]: > 53.6 µM; TGI [4]: > 100 µM; GI50 [5]: > 32.8 µM; TGI [5]: > 100 µM; GI50 [6]: 2.02 µM; TGI [6]: > 100 µM; TGI [7]: > 100 µM; TGI [10]: > 100 µM; GI50 [8]: 4.18 µM; TGI [8]: > 100 µM; GI50 [9]: 27.1 µM; TGI [9]: > 100 µM
